These results are taken from PubChem BioAssay AID196 (DTP/NCI, 2004).

Values joined by “and” are separate entries in the source; they are usually repeats but may differ in a detail not shown here. Equal entries are not always repeated. Toxic doses and inconclusive results are not listed.

The subject of this experiment is BDF1 mice, intracerebral B16 melanoma, median survival T/C. In words: NCI In Vivo Anticancer Drug Screen. Data for tumor model B16 Melanoma (intracerebral) in B6D2F1 (BDF1) mice. The following applies: endpoint: median survival time, higher = longer survival. As to the method: The antitumor activity of compounds was measured in mice bearing transplantable tumors. Survival or tumor size were measured and the results are expressed as the measurement made in the treated group (T) divided by the measurement made in the vehicle treated control group (C). The tumor model used in this assay is B16 Melanoma (intracerebral) in B6D2F1 (BDF1) mice

The mark [1] stands for this setting: dose: 0.25 mg/kg/injection, schedule: Q01DX009 (ip), vehicle: saline.
[2] abbreviates: dose: 0.5 mg/kg/injection, schedule: Q01DX009 (ip), vehicle: saline.
Where [3] appears, read: dose: 1.0 mg/kg/injection, schedule: Q01DX009 (ip), vehicle: saline.
Where [4] appears, read: dose: 2.0 mg/kg/injection, schedule: Q01DX009 (ip), vehicle: saline.
[5] abbreviates: dose: 2.0 mg/kg/injection, schedule: Q01DX009 (ip), vehicle: water.
Setting [6] is: dose: 32.0 mg/kg/injection, schedule: Q01DX005 (ip), vehicle: saline with Tween-80.

Take `C[C@@H]1C[C@H]2[C@@H]3CCC4=CC(=O)C=C[C@]4(C)[C@@]3(F)[C@@H](O)C[C@]2(C)[C@@]1(O)C(=O)CO`: the T/C by setting is: (dose: 0.75 mg/kg/injection, schedule: Q01DX009 (ip), vehicle: saline) 108 % of control; (dose: 1.5 mg/kg/injection, schedule: Q01DX009 (ip), vehicle: saline) 104 % of control; (dose: 3.0 mg/kg/injection, schedule: Q01DX009 (ip), vehicle: saline) 118 % of control and 104 % of control; (dose: 6.0 mg/kg/injection, schedule: Q01DX009 (ip), vehicle: saline) 104 % of control and 112 % of control; (dose: 12.0 mg/kg/injection, schedule: Q01DX009 (ip), vehicle: saline) 122 % of control.

In the case of `COc1cc2c(c3c1c(=O)c1ccccc1n3C)C=CC(C)(C)O2`, the T/C by setting is: (dose: 16.0 mg/kg/injection, schedule: Q01DX005 (ip), vehicle: Klucel (hydroxypropylcellulose) (HPC)) 121 % of control; (dose: 32.0 mg/kg/injection, schedule: Q01DX005 (ip), vehicle: Klucel (hydroxypropylcellulose) (HPC)) 104 % of control; (dose: 64.0 mg/kg/injection, schedule: Q01DX005 (ip), vehicle: Klucel (hydroxypropylcellulose) (HPC)) 115 % of control.

In the case of `CN(C)N=Nc1ccc(Cl)c2ncccc12`, the T/C by setting is: (dose: 3.12 mg/kg/injection, schedule: Q01DX009 (ip), vehicle: other) 108 % of control; (dose: 6.25 mg/kg/injection, schedule: Q01DX009 (ip), vehicle: other) 97 % of control; (dose: 12.5 mg/kg/injection, schedule: Q01DX009 (ip), vehicle: other) 100 % of control; (dose: 50.0 mg/kg/injection, schedule: Q01DX009 (ip), vehicle: other) 94 % of control.

As for `CC(=O)OCC1C(=O)OCC1C(=O)N1Cc2cc3ccccc3nc2C1` (centres undefined), the T/C is, setting by setting: (dose: 8.0 mg/kg/injection, schedule: Q01DX009 (ip), vehicle: saline with Tween-80) 111 % of control; (dose: 16.0 mg/kg/injection, schedule: Q01DX009 (ip), vehicle: saline with Tween-80) 99 % of control; (dose: 32.0 mg/kg/injection, schedule: Q01DX009 (ip), vehicle: saline with Tween-80) 103 % of control; (dose: 64.0 mg/kg/injection, schedule: Q01DX009 (ip), vehicle: saline with Tween-80) 95 % of control; (dose: 128.0 mg/kg/injection, schedule: Q01DX009 (ip), vehicle: saline with Tween-80) 93 % of control.

`COc1cc([C@@H]2c3cc4c(cc3[C@@H](OC3OC5CO[C@@H](c6cccs6)OC5C(O)C3O)[C@H]3COC(=O)[C@H]23)OCO4)cc(OC)c1O` (some centres undefined): the T/C by setting is: under setting [1], 96 % of control; under setting [2], 107 % of control; (dose: 0.5 mg/kg/injection, schedule: Q01DX009 (ip), vehicle: water) 91 % of control; under setting [3], 95 % of control and 100 % of control; (dose: 1.0 mg/kg/injection, schedule: Q01DX009 (ip), vehicle: water) 104 % of control; under setting [4], 100 % of control and 108 % of control. Also, the T/C is 95 % of control under setting [5] and 104 % of control (dose: 4.0 mg/kg/injection, schedule: Q01DX009 (ip), vehicle: saline).

`NC(Cc1ccc(N(CCCl)CCCl)cc1)C(=O)O` (centres undefined): the T/C under setting [5] was 120 % of control.

For `NC(=O)N(CCCl)N=O`, the T/C by setting is: (dose: 1.0 mg/kg/injection, schedule: Q01DX001 (ip), vehicle: saline + alcohol) 102 % of control; (dose: 2.0 mg/kg/injection, schedule: Q01DX001 (ip), vehicle: saline + alcohol) 112 % of control; (dose: 4.0 mg/kg/injection, schedule: Q01DX001 (ip), vehicle: saline + alcohol) 121 % of control.

As to `CCCCCN(C)/N=N/c1nc[nH]c1C(N)=O`, the T/C under setting [6] was 120 % of control.

Turning to `CCC(C)N(C)/N=N/c1nc[nH]c1C(N)=O` (centres undefined), the T/C (dose: 16.0 mg/kg/injection, schedule: Q01DX005 (ip), vehicle: saline with Tween-80) was 102 % of control; the T/C under setting [6] is 106 % of control; the T/C (dose: 64.0 mg/kg/injection, schedule: Q01DX005 (ip), vehicle: saline with Tween-80) was 112 % of control; the T/C (dose: 128.0 mg/kg/injection, schedule: Q01DX005 (ip), vehicle: saline with Tween-80) was 107 % of control.

Consider `O=CC(NC(=O)N(CCF)N=O)C(O)C(O)C(O)CO` (centres undefined), for which the T/C (dose: 26.7 mg/kg/injection, schedule: Q01DX001 (ip), vehicle: Klucel (hydroxypropylcellulose) (HPC)) is 107 % of control; the T/C (dose: 40.0 mg/kg/injection, schedule: Q01DX001 (ip), vehicle: Klucel (hydroxypropylcellulose) (HPC)) was 109 % of control; the T/C (dose: 60.0 mg/kg/injection, schedule: Q01DX001 (ip), vehicle: Klucel (hydroxypropylcellulose) (HPC)) is 118 % of control.

As for `O=NN(CCCl)C(=O)NC1[C@H](O)CCC[C@@H]1O` (some centres undefined), the T/C is, setting by setting: (dose: 4.32 mg/kg/injection, schedule: Q01DX001 (ip), vehicle: saline) 104 % of control; (dose: 12.0 mg/kg/injection, schedule: Q01DX001 (ip), vehicle: saline) 152 % of control.

For `CO[C@H](C(=O)[C@@H](O)[C@@H](C)O)[C@@H]1Cc2cc3cc(OC4CC(OC5CC(O)C(O)C(C)O5)C(O)C(C)O4)c(C)c(O)c3c(O)c2C(=O)[C@H]1OC1CC(OC2CC(OC3CC(C)(O)C(O)C(C)O3)C(O)C(C)O2)C(O)C(C)O1` (some centres undefined), the T/C reads like this: (dose: 0.13 mg/kg/injection, schedule: Q01DX009 (ip), vehicle: saline) 91 % of control and 95 % of control; under setting [1], 109 % of control and 112 % of control; under setting [2], 91 % of control and 100 % of control; under setting [3], 87 % of control and 90 % of control.

On to `CCC(=O)O[C@H]1CC[C@H]2[C@@H]3CCC4=CC(=O)CC[C@]4(C)[C@H]3CC[C@]12C`, for which the T/C (dose: 8.0 mg/kg/injection, schedule: Q01DX009 (ip), vehicle: Klucel (hydroxypropylcellulose) (HPC)) was 99 % of control; the T/C (dose: 16.0 mg/kg/injection, schedule: Q01DX009 (ip), vehicle: Klucel (hydroxypropylcellulose) (HPC)) was 116 % of control; the T/C (dose: 32.0 mg/kg/injection, schedule: Q01DX009 (ip), vehicle: Klucel (hydroxypropylcellulose) (HPC)) was 111 % of control; the T/C (dose: 64.0 mg/kg/injection, schedule: Q01DX009 (ip), vehicle: Klucel (hydroxypropylcellulose) (HPC)) was 99 % of control; the T/C (dose: 128.0 mg/kg/injection, schedule: Q01DX009 (ip), vehicle: Klucel (hydroxypropylcellulose) (HPC)) was 123 % of control; the T/C (dose: 256.0 mg/kg/injection, schedule: Q01DX009 (ip), vehicle: Klucel (hydroxypropylcellulose) (HPC)) is 97 % of control. The T/C (dose: 512.0 mg/kg/injection, schedule: Q01DX009 (ip), vehicle: Klucel (hydroxypropylcellulose) (HPC)) was 104 % of control.

For `Nc1nc2c(c(=O)[nH]1)N(C=O)C(CNc1ccc(C(=O)N[C@@H](CCC(=O)O)C(=O)O)cc1)CN2` (some centres undefined), the T/C is, setting by setting: (dose: 128.0 mg/kg/injection, schedule: Q01DX005 (ip), vehicle: saline) 102 % of control; (dose: 256.0 mg/kg/injection, schedule: Q01DX005 (ip), vehicle: saline) 95 % of control; (dose: 512.0 mg/kg/injection, schedule: Q01DX005 (ip), vehicle: saline) 87 % of control.

Turning to `O=NN(CCCl)C(=O)NCCCl`, the T/C by setting is: under setting [2], 104 % of control and 112 % of control; under setting [3], 109 % of control and 113 % of control; (dose: 1.87 mg/kg/injection, schedule: Q01DX009 (ip), vehicle: saline) 120 % of control; under setting [4], 111 % of control and 112 % of control; (dose: 2.5 mg/kg/injection, schedule: Q04DX003 (ip), vehicle: saline sonified) 108 % of control; (dose: 3.8 mg/kg/injection, schedule: Q01DX009 (ip), vehicle: saline) 108 % of control. Further, the T/C was 158 % of control (dose: 5.0 mg/kg/injection, schedule: Q01DX009 (ip), vehicle: other); 150 % of control (dose: 7.5 mg/kg/injection, schedule: Q01DX009 (ip), vehicle: saline); 172 % of control and 188 % of control (dose: 8.0 mg/kg/injection, schedule: Q01DX009 (ip), vehicle: saline); 175 % of control (dose: 10.0 mg/kg/injection, schedule: Q04DX003 (ip), vehicle: saline sonified); 91 % of control and 108 % of control (dose: 15.0 mg/kg/injection, schedule: Q01DX009 (ip), vehicle: saline).
